Experimental data as given in patent US12540128B2, “Substituted pyridazinones as herbicides” (SYNGENTA CROP PROTECTION AG, priority 2019, dated 2026).

Tests used:
Assay type in all cases: in vivo
Settings in all cases: 250 g/ha, after 13 days
[1] = system: Amaranthus retoflexus (AMARE); assay: B1 Post-Emergence Efficacy Test 1
Procedure: (§1) Seeds of a variety of test species are sown in standard soil in pots:— Solanum nigrum (SOLNI), Amaranthus retoflexus (AMARE), Setaria faberi (SETFA), Echinochloa crus-galli (ECHCG), Ipomoea hederacea (IPOHE), Lolium perenne (LOLPE). After 8 days cultivation (post-emergence) under controlled conditions in a glasshouse (at 24/16° C., day/night; 14 hours light; 65% humidity), the plants are sprayed with an aqueous spray solution derived from the formulation of the technical active ingredient in acetone/water (50:50) solution containing 0.5% Tween 20 (polyoxyethylene sorbitan monolaurate, CAS RN 9005-64-5). Compounds are applied at 250 g/ha. The test plants are then grown in a glasshouse under controlled conditions in a glasshouse (at 24/16° C., day/night; 14 hours light; 65% humidity) and watered twice daily. After 13 days, the test is evaluated for the percentage damage caused to the plant. The biological activities are assessed on a five point scale (5=80-100%; 4=60-79%; 3=40-59%; 2=20-39%; 1=0-19%). A blank value in the table is indicative that the compound was not tested on that species.

[2] = system: Echinochloa crus-galli (ECHCG); assay: B1 Post-Emergence Efficacy Test 1
Procedure: as §1

[3] = system: Ipomoea hederacea (IPOHE); assay: B1 Post-Emergence Efficacy Test 1
Procedure: as §1

Lolium perenne (LOLPE) [4] = assay: B1 Post-Emergence Efficacy Test 1
Procedure: as §1

Setaria faberi (SETFA) [5] = assay: B1 Post-Emergence Efficacy Test 1
Procedure: as §1

[6] = system: Amaranthus retoflexus (AMARE); assay: B3 Pre-Emergence Efficacy Test 1
Procedure: (§2) Seeds of a variety of test species were sown in standard soil in pots: Solanum nigrum (SOLNI), Amaranthus retoflexus (AMARE), Setaria faberi (SETFA), Echinochloa crus-galli (ECHCG), Ipomoea hederacea (IPOHE), Lolium perenne (LOLPE). After cultivation for one day (pre-emergence) under controlled conditions in a glasshouse (at 24/16° C., day/night; 14 hours light; 65% humidity), the plants were sprayed with an aqueous spray solution derived from the formulation of the technical active ingredient in acetone/water (50:50) solution containing 0.5% Tween 20 (polyoxyethelyene sorbitan monolaurate, CAS RN 9005-64-5). Compounds are applied at 250 g/ha. The test plants were then grown in a glasshouse under controlled conditions (at 24/16° C., day/night; 14 hours light; 65% humidity) and watered twice daily. After 13 days, the test is evaluated for the percentage damage caused to the plant. The biological activities are assessed on a five point scale (5=80-100%; 4=60-79%; 3=40-59%; 2=20-39%; 1=0-19%). A blank value in the table is indicative that the compound was not tested on that species.

[7] = system: Echinochloa crus-galli (ECHCG); assay: B3 Pre-Emergence Efficacy Test 1
Procedure: as §2

[8] = system: Ipomoea hederacea (IPOHE); assay: B3 Pre-Emergence Efficacy Test 1
Procedure: as §2

Lolium perenne (LOLPE) [9] = assay: B3 Pre-Emergence Efficacy Test 1
Procedure: as §2

Setaria faberi (SETFA) [10] = assay: B3 Pre-Emergence Efficacy Test 1
Procedure: as §2

Solanum nigrum (SOLNI) [11] = assay: B3 Pre-Emergence Efficacy Test 1
Procedure: as §2

Solanum nigrum (SOLNI) [12] = assay: B1 Post-Emergence Efficacy Test 1
Procedure: as §1

[13] = system: Abutilon theophrasti (ABUTH); assay: B2 Post-Emergence Efficacy Test 2
Procedure: as §1, with “pots:—” for “pots:— Solanum nigrum (SOLNI),”, “Zea Mays (ZEAMX), Abutilon theophrasti (ABUTH).” for “Lolium perenne (LOLPE).”

[14] = system: Amaranthus retoflexus (AMARE); assay: B2 Post-Emergence Efficacy Test 2
Procedure: as §1, with “pots:—” for “pots:— Solanum nigrum (SOLNI),”, “Zea Mays (ZEAMX), Abutilon theophrasti (ABUTH).” for “Lolium perenne (LOLPE).”

[15] = system: Ipomoea hederacea (IPOHE); assay: B2 Post-Emergence Efficacy Test 2
Procedure: as §1, with “pots:—” for “pots:— Solanum nigrum (SOLNI),”, “Zea Mays (ZEAMX), Abutilon theophrasti (ABUTH).” for “Lolium perenne (LOLPE).”

Setaria faberi (SETFA) [16] = assay: B2 Post-Emergence Efficacy Test 2
Procedure: as §1, with “pots:—” for “pots:— Solanum nigrum (SOLNI),”, “Zea Mays (ZEAMX), Abutilon theophrasti (ABUTH).” for “Lolium perenne (LOLPE).”

Zea Mays (ZEAMX) [17] = assay: B2 Post-Emergence Efficacy Test 2
Procedure: as §1, with “pots:—” for “pots:— Solanum nigrum (SOLNI),”, “Zea Mays (ZEAMX), Abutilon theophrasti (ABUTH).” for “Lolium perenne (LOLPE).”

[18] = system: Abutilon theophrasti (ABUTH); assay: B4 Pre-Emergence Efficacy Test 2
Procedure: as §2, with “pots:” for “pots: Solanum nigrum (SOLNI),”, “Zea Mays (ZEAMX), Abutilon theophrasti (ABUTH).” for “Lolium perenne (LOLPE).”

[19] = system: Amaranthus retoflexus (AMARE); assay: B4 Pre-Emergence Efficacy Test 2
Procedure: as §2, with “pots:” for “pots: Solanum nigrum (SOLNI),”, “Zea Mays (ZEAMX), Abutilon theophrasti (ABUTH).” for “Lolium perenne (LOLPE).”

[20] = system: Echinochloa crus-galli (ECHCG); assay: B4 Pre-Emergence Efficacy Test 2
Procedure: as §2, with “pots:” for “pots: Solanum nigrum (SOLNI),”, “Zea Mays (ZEAMX), Abutilon theophrasti (ABUTH).” for “Lolium perenne (LOLPE).”

[21] = system: Ipomoea hederacea (IPOHE); assay: B4 Pre-Emergence Efficacy Test 2
Procedure: as §2, with “pots:” for “pots: Solanum nigrum (SOLNI),”, “Zea Mays (ZEAMX), Abutilon theophrasti (ABUTH).” for “Lolium perenne (LOLPE).”

Setaria faberi (SETFA) [22] = assay: B4 Pre-Emergence Efficacy Test 2
Procedure: as §2, with “pots:” for “pots: Solanum nigrum (SOLNI),”, “Zea Mays (ZEAMX), Abutilon theophrasti (ABUTH).” for “Lolium perenne (LOLPE).”

Zea Mays (ZEAMX) [23] = assay: B4 Pre-Emergence Efficacy Test 2
Procedure: as §2, with “pots:” for “pots: Solanum nigrum (SOLNI),”, “Zea Mays (ZEAMX), Abutilon theophrasti (ABUTH).” for “Lolium perenne (LOLPE).”

[24] = system: Echinochloa crus-galli (ECHCG); assay: B2 Post-Emergence Efficacy Test 2
Procedure: as §1, with “pots:—” for “pots:— Solanum nigrum (SOLNI),”, “Zea Mays (ZEAMX), Abutilon theophrasti (ABUTH).” for “Lolium perenne (LOLPE).”

Row | SMILES | percentage damage caused to the plant, five point scale, AMARE [1] | percentage damage caused to the plant, five point scale, IPOHE [3] | percentage damage caused to the plant, five point scale, LOLPE (Lolium perenne (LOLPE) [4]) | percentage damage caused to the plant, five point scale, SETFA (Setaria faberi (SETFA) [5]) | percentage damage caused to the plant, five point scale, AMARE [6] | percentage damage caused to the plant, five point scale, ECHCG [7] | percentage damage caused to the plant, five point scale, IPOHE [8] | percentage damage caused to the plant, five point scale, LOLPE (Lolium perenne (LOLPE) [9]) | percentage damage caused to the plant, five point scale, SETFA (Setaria faberi (SETFA) [10]) | percentage damage caused to the plant, five point scale, SOLNI (Solanum nigrum (SOLNI) [11]) | percentage damage caused to the plant, five point scale, SOLNI (Solanum nigrum (SOLNI) [12]) | percentage damage caused to the plant, five point scale, ABUTH [13] | percentage damage caused to the plant, five point scale, AMARE [14] | percentage damage caused to the plant, five point scale, IPOHE [15] | percentage damage caused to the plant, five point scale, SETFA (Setaria faberi (SETFA) [16]) | percentage damage caused to the plant, five point scale, ZEAMX (Zea Mays (ZEAMX) [17]) | percentage damage caused to the plant, five point scale, ABUTH [18] | percentage damage caused to the plant, five point scale, AMARE [19] | percentage damage caused to the plant, five point scale, ECHCG [20] | percentage damage caused to the plant, five point scale, IPOHE [21] | further results
1 | Cc1nn(C)c(=O)c(-c2c(F)ccc(Cl)c2CCc2cc(C(F)(F)F)nc3ccccc23)c1O [Compound 1.027] | 2 (2=20-39%) | 5 (5=80-100%) | 4 (4=60-79%) | 4 (4=60-79%) | 1 (1=0-19%) | 3 (3=40-59%) | 3 (3=40-59%) | 3 (3=40-59%) | 1 (1=0-19%) | 4 (4=60-79%) |  |  |  |  |  |  |  |  |  |  | percentage damage caused to the plant, five point scale, ECHCG [2]: 4 (4=60-79%)
2 | Cc1nn(C)c(=O)c(-c2c(F)ccc(Cl)c2CCc2ccc3c(c2)CC(=O)N3)c1O [Compound 1.357] | 5 (5=80-100%) | 5 (5=80-100%) | 5 (5=80-100%) | 5 (5=80-100%) |  |  |  |  |  |  | 5 (5=80-100%) | 4 (4=60-79%) | 2 (2=20-39%) | 4 (4=60-79%) | 4 (4=60-79%) | 5 (5=80-100%) | 4 (4=60-79%) | 4 (4=60-79%) | 4 (4=60-79%) | 3 (3=40-59%) | percentage damage caused to the plant, five point scale, ECHCG [2]: 4 (4=60-79%); percentage damage caused to the plant, five point scale, SETFA (Setaria faberi (SETFA) [22]): 4 (4=60-79%); percentage damage caused to the plant, five point scale, ZEAMX (Zea Mays (ZEAMX) [23]): 1 (1=0-19%)
3 | Cc1nn(C)c(=O)c(-c2c(F)ccc(Cl)c2CCc2ccc3c(c2)OC(C)(C)O3)c1O [Compound 1.361, [3-chloro-2-[2-(2,2-dimethyl-1,3-benzodioxol-5-yl)ethyl]-6-fluoro-phenyl]-5-hydroxy-2,6-dimethyl-pyridazin-3-one] |  |  |  |  |  |  |  |  |  |  |  | 5 (5=80-100%) | 3 (3=40-59%) | 5 (5=80-100%) | 5 (5=80-100%) | 4 (4=60-79%) | 5 (5=80-100%) | 4 (4=60-79%) | 3 (3=40-59%) | 4 (4=60-79%) | percentage damage caused to the plant, five point scale, ECHCG [24]: 4 (4=60-79%); percentage damage caused to the plant, five point scale, SETFA (Setaria faberi (SETFA) [22]): 5 (5=80-100%); percentage damage caused to the plant, five point scale, ZEAMX (Zea Mays (ZEAMX) [23]): 1 (1=0-19%)
4 | Cc1ccc2cc(/C=C/c3c(Cl)ccc(F)c3-c3c(O)c(C)nn(C)c3=O)ccc2n1 [Compound 2.034, 4-[3-chloro-6-fluoro-2-[(E)-2-(2-methyl-6-quinolyl)vinyl]phenyl]-5-hydroxy-2,6-dimethyl-pyridazin-3-one] | 1 (1=0-19%) | 3 (3=40-59%) | 2 (2=20-39%) | 2 (2=20-39%) | 1 (1=0-19%) | 1 (1=0-19%) | 0 | 1 (1=0-19%) | 1 (1=0-19%) | 2 (2=20-39%) | 5 (5=80-100%) |  |  |  |  |  |  |  |  |  | 
5 | Cc1nn(C)c(=O)c(-c2c(F)ccc(Cl)c2/C=C/c2cn3ccnc3cn2)c1O [Compound 2.363] |  |  |  |  |  |  |  |  |  |  |  | 0 | 1 (1=0-19%) | 2 (2=20-39%) | 0 | 0 | 5 (5=80-100%) | 5 (5=80-100%) | 5 (5=80-100%) | 5 (5=80-100%) | percentage damage caused to the plant, five point scale, ECHCG [24]: 0; percentage damage caused to the plant, five point scale, SETFA (Setaria faberi (SETFA) [22]): 4 (4=60-79%); percentage damage caused to the plant, five point scale, ZEAMX (Zea Mays (ZEAMX) [23]): 2 (2=20-39%)
6 | Cc1ccc2cc(/C=C/c3c(Cl)ccc(F)c3-c3c(OC(=O)C(C)C)c(C)nn(C)c3=O)ccc2n1 [Compound 4.034, [5-[3-chloro-6-fluoro-2-[(E)-2-(2-methyl-6-quinolyl)vinyl]phenyl]-1,3-dimethyl-6-oxo-pyridazin-4-yl] 2-methylpropanoate] | 1 (1=0-19%) | 3 (3=40-59%) | 1 (1=0-19%) | 2 (2=20-39%) | 0 | 0 | 0 | 0 | 0 | 1 (1=0-19%) | 5 (5=80-100%) |  |  |  |  |  |  |  |  |  | 
